Experimental data reported in ChEMBL document CHEMBL1133032, “Combinatorial approach to lead optimization of a novel hexapeptide with antifungal activity” (Bioorg Med Chem Lett, 2000).
Converted amounts (≈) assume the structure as drawn. Square brackets hold non-standard residues; d marks the D form. Peptide text beside a SMILES is read from it.

Tests used:
Candida albicans = assay: Antifungal activity against Candida albicans using twofold microbroth dilution technique.; assay type: functional, organism-based
Cryptococcus neoformans = assay: Lowest concentration of compound that substantially inhibited the growth of Cryptococcus neoformans after 48 hr; assay type: functional

| IC50 (Candida albicans) [µM] | MIC (Cryptococcus neoformans) [µM] | Structure (SMILES) |
| --- | --- | --- |
| 14.4 | – | CC[C@H](C)[C@H](NC(=O)[C@@H](Cc1ccccc1)NC(=O)[C@@H](Cc1c[nH]c2ccccc12)NC(=O)[C@@H](N)CCCN=C(N)N)C(=O)N[C@H](Cc1ccccc1)C(=O)N[C@@H](CCCCN)C(N)=O [listing 1 of 2 here] |
| – | 6.92 (≈ 6.19 µg/mL) | CC[C@H](C)[C@H](NC(=O)[C@@H](Cc1ccccc1)NC(=O)[C@@H](Cc1c[nH]c2ccccc12)NC(=O)[C@@H](N)CCCN=C(N)N)C(=O)N[C@H](Cc1ccccc1)C(=O)N[C@@H](CCCCN)C(N)=O [listing 2 of 2 here] |
| 33.9 | – | CC[C@H](C)[C@H](NC(=O)[C@@H](Cc1ccccc1)NC(=O)[C@@H](Cc1c[nH]c2ccccc12)NC(=O)[C@@H](N)CCCN=C(N)N)C(=O)N[C@H](Cc1ccccc1)C(=O)NCC(N)=O [listing 1 of 2 here] |
| – | 15.2 (≈ 12.5 µg/mL) | CC[C@H](C)[C@H](NC(=O)[C@@H](Cc1ccccc1)NC(=O)[C@@H](Cc1c[nH]c2ccccc12)NC(=O)[C@@H](N)CCCN=C(N)N)C(=O)N[C@H](Cc1ccccc1)C(=O)NCC(N)=O [listing 2 of 2 here] |
| 15.9 | – | CC[C@H](C)[C@H](NC(=O)[C@@H](Cc1ccccc1)NC(=O)[C@@H](Cc1c[nH]c2ccccc12)NC(=O)[C@@H](N)CCCN=C(N)N)C(=O)N[C@H](Cc1ccccc1)C(=O)N[C@@H](Cc1ccc(O)cc1)C(N)=O [listing 1 of 2 here] |
| – | 13.4 (≈ 12.5 µg/mL) | CC[C@H](C)[C@H](NC(=O)[C@@H](Cc1ccccc1)NC(=O)[C@@H](Cc1c[nH]c2ccccc12)NC(=O)[C@@H](N)CCCN=C(N)N)C(=O)N[C@H](Cc1ccccc1)C(=O)N[C@@H](Cc1ccc(O)cc1)C(N)=O [listing 2 of 2 here] |
| 25.4 | – | CC[C@H](C)[C@H](NC(=O)[C@@H](Cc1ccccc1)NC(=O)[C@@H](Cc1c[nH]c2ccccc12)NC(=O)[C@@H](N)CCCN=C(N)N)C(=O)N[C@H](Cc1ccccc1)C(=O)N[C@@H](Cc1c[nH]c2ccccc12)C(N)=O [listing 1 of 2 here] |
| – | 13.1 (≈ 12.5 µg/mL) | CC[C@H](C)[C@H](NC(=O)[C@@H](Cc1ccccc1)NC(=O)[C@@H](Cc1c[nH]c2ccccc12)NC(=O)[C@@H](N)CCCN=C(N)N)C(=O)N[C@H](Cc1ccccc1)C(=O)N[C@@H](Cc1c[nH]c2ccccc12)C(N)=O [listing 2 of 2 here] |
| > 28.4 | – | CC[C@H](C)[C@H](NC(=O)[C@@H](Cc1ccccc1)NC(=O)[C@@H](Cc1c[nH]c2ccccc12)NC(=O)[C@@H](N)CCCN=C(N)N)C(=O)N[C@H](Cc1ccccc1)C(=O)N[C@H](C(N)=O)C(C)C [listing 1 of 2 here] |
| – | 14.4 (≈ 12.5 µg/mL) | CC[C@H](C)[C@H](NC(=O)[C@@H](Cc1ccccc1)NC(=O)[C@@H](Cc1c[nH]c2ccccc12)NC(=O)[C@@H](N)CCCN=C(N)N)C(=O)N[C@H](Cc1ccccc1)C(=O)N[C@H](C(N)=O)C(C)C [listing 2 of 2 here] |
| > 14.9 | – | CC[C@H](C)[C@H](NC(=O)[C@@H](Cc1ccccc1)NC(=O)[C@@H](Cc1c[nH]c2ccccc12)NC(=O)[C@@H](N)CCCN=C(N)N)C(=O)N[C@H](Cc1ccccc1)C(=O)N[C@@H](CO)C(N)=O [listing 1 of 2 here] |
| – | 14.6 (≈ 12.5 µg/mL) | CC[C@H](C)[C@H](NC(=O)[C@@H](Cc1ccccc1)NC(=O)[C@@H](Cc1c[nH]c2ccccc12)NC(=O)[C@@H](N)CCCN=C(N)N)C(=O)N[C@H](Cc1ccccc1)C(=O)N[C@@H](CO)C(N)=O [listing 2 of 2 here] |
| > 12.5 | – | CC[C@H](C)[C@H](NC(=O)[C@@H](Cc1ccccc1)NC(=O)[C@@H](Cc1c[nH]c2ccccc12)NC(=O)[C@@H](N)CCCN=C(N)N)C(=O)N[C@H](Cc1ccccc1)C(=O)N[C@@H](CCCN=C(N)N)C(N)=O [listing 1 of 2 here] |
| – | 6.71 (≈ 6.19 µg/mL) | CC[C@H](C)[C@H](NC(=O)[C@@H](Cc1ccccc1)NC(=O)[C@@H](Cc1c[nH]c2ccccc12)NC(=O)[C@@H](N)CCCN=C(N)N)C(=O)N[C@H](Cc1ccccc1)C(=O)N[C@@H](CCCN=C(N)N)C(N)=O [listing 2 of 2 here] |
| 30.2 | – | CC[C@H](C)[C@H](NC(=O)[C@@H](Cc1ccccc1)NC(=O)[C@@H](Cc1c[nH]c2ccccc12)NC(=O)[C@@H](N)CCCN=C(N)N)C(=O)N[C@H](Cc1ccccc1)C(=O)N[C@@H](CCC(N)=O)C(N)=O [listing 1 of 2 here] |
| – | 55.9 (≈ 50 µg/mL) | CC[C@H](C)[C@H](NC(=O)[C@@H](Cc1ccccc1)NC(=O)[C@@H](Cc1c[nH]c2ccccc12)NC(=O)[C@@H](N)CCCN=C(N)N)C(=O)N[C@H](Cc1ccccc1)C(=O)N[C@@H](CCC(N)=O)C(N)=O [listing 2 of 2 here] |
| 51.4 | – | CC[C@H](C)[C@H](NC(=O)[C@@H](Cc1ccccc1)NC(=O)[C@@H](Cc1c[nH]c2ccccc12)NC(=O)[C@@H](N)CCCN=C(N)N)C(=O)N[C@H](Cc1ccccc1)C(=O)N1CCC[C@H]1C(N)=O [listing 1 of 2 here] |
| – | 28.9 (≈ 25 µg/mL) | CC[C@H](C)[C@H](NC(=O)[C@@H](Cc1ccccc1)NC(=O)[C@@H](Cc1c[nH]c2ccccc12)NC(=O)[C@@H](N)CCCN=C(N)N)C(=O)N[C@H](Cc1ccccc1)C(=O)N1CCC[C@H]1C(N)=O [listing 2 of 2 here] |
| > 14.9 | – | CC[C@H](C)[C@H](NC(=O)[C@@H](Cc1ccccc1)NC(=O)[C@@H](Cc1c[nH]c2ccccc12)NC(=O)[C@@H](N)CCCN=C(N)N)C(=O)N[C@H](Cc1ccccc1)C(=O)N[C@@H](CC(N)=O)C(N)=O [listing 1 of 2 here] |
| – | 14.2 (≈ 12.5 µg/mL) | CC[C@H](C)[C@H](NC(=O)[C@@H](Cc1ccccc1)NC(=O)[C@@H](Cc1c[nH]c2ccccc12)NC(=O)[C@@H](N)CCCN=C(N)N)C(=O)N[C@H](Cc1ccccc1)C(=O)N[C@@H](CC(N)=O)C(N)=O [listing 2 of 2 here] |

| IC50 (Candida albicans) [µM] | MIC (Cryptococcus neoformans) [µM] | Structure (SMILES) |
| --- | --- | --- |
| 24.5 | – | CC[C@H](C)[C@H](NC(=O)[C@@H](Cc1ccccc1)NC(=O)[C@@H](Cc1c[nH]c2ccccc12)NC(=O)[C@@H](N)CCCN=C(N)N)C(=O)N[C@H](Cc1ccccc1)C(=O)N[C@@H](CCSC)C(N)=O [listing 1 of 2 here] |
| – | 27.8 (≈ 25 µg/mL) | CC[C@H](C)[C@H](NC(=O)[C@@H](Cc1ccccc1)NC(=O)[C@@H](Cc1c[nH]c2ccccc12)NC(=O)[C@@H](N)CCCN=C(N)N)C(=O)N[C@H](Cc1ccccc1)C(=O)N[C@@H](CCSC)C(N)=O [listing 2 of 2 here] |
| 14.9 | – | CC[C@H](C)[C@H](NC(=O)[C@@H](Cc1ccccc1)NC(=O)[C@@H](Cc1c[nH]c2ccccc12)NC(=O)[C@@H](N)CCCN=C(N)N)C(=O)N[C@H](Cc1ccccc1)C(=O)N[C@@H](CC(C)C)C(N)=O [listing 1 of 2 here] |
| – | 7.04 (≈ 6.2 µg/mL) | CC[C@H](C)[C@H](NC(=O)[C@@H](Cc1ccccc1)NC(=O)[C@@H](Cc1c[nH]c2ccccc12)NC(=O)[C@@H](N)CCCN=C(N)N)C(=O)N[C@H](Cc1ccccc1)C(=O)N[C@@H](CC(C)C)C(N)=O [listing 2 of 2 here] |
| 13.7 | – | CC[C@H](C)[C@H](NC(=O)[C@@H](Cc1ccccc1)NC(=O)[C@@H](Cc1c[nH]c2ccccc12)NC(=O)[C@@H](N)CCCN=C(N)N)C(=O)N[C@H](Cc1ccccc1)C(=O)N[C@@H](Cc1ccccc1)C(N)=O [listing 1 of 2 here] |
| – | 13.7 (≈ 12.5 µg/mL) | CC[C@H](C)[C@H](NC(=O)[C@@H](Cc1ccccc1)NC(=O)[C@@H](Cc1c[nH]c2ccccc12)NC(=O)[C@@H](N)CCCN=C(N)N)C(=O)N[C@H](Cc1ccccc1)C(=O)N[C@@H](Cc1ccccc1)C(N)=O [listing 2 of 2 here] |
| > 28.4 | – | CC[C@H](C)[C@H](NC(=O)[C@@H](Cc1ccccc1)NC(=O)[C@@H](Cc1c[nH]c2ccccc12)NC(=O)[C@@H](N)CCCN=C(N)N)C(=O)N[C@H](Cc1ccccc1)C(=O)N[C@@H](CCC(=O)O)C(N)=O [listing 1 of 2 here] |
| – | 55.8 (≈ 50 µg/mL) | CC[C@H](C)[C@H](NC(=O)[C@@H](Cc1ccccc1)NC(=O)[C@@H](Cc1c[nH]c2ccccc12)NC(=O)[C@@H](N)CCCN=C(N)N)C(=O)N[C@H](Cc1ccccc1)C(=O)N[C@@H](CCC(=O)O)C(N)=O [listing 2 of 2 here] |
| > 14.9 | – | CC[C@H](C)[C@H](NC(=O)[C@@H](Cc1ccccc1)NC(=O)[C@@H](Cc1c[nH]c2ccccc12)NC(=O)[C@@H](N)CCCN=C(N)N)C(=O)N[C@H](Cc1ccccc1)C(=O)N[C@@H](CC(=O)O)C(N)=O [listing 1 of 2 here] |
| – | 113 (≈ 100 µg/mL) | CC[C@H](C)[C@H](NC(=O)[C@@H](Cc1ccccc1)NC(=O)[C@@H](Cc1c[nH]c2ccccc12)NC(=O)[C@@H](N)CCCN=C(N)N)C(=O)N[C@H](Cc1ccccc1)C(=O)N[C@@H](CC(=O)O)C(N)=O [listing 2 of 2 here] |
| > 14.9 | – | CC[C@H](C)[C@H](NC(=O)[C@@H](Cc1ccccc1)NC(=O)[C@@H](Cc1c[nH]c2ccccc12)NC(=O)[C@@H](N)CCCN=C(N)N)C(=O)N[C@H](Cc1ccccc1)C(=O)N[C@@H](C)C(N)=O [listing 1 of 2 here] |
| – | 14.9 (≈ 12.5 µg/mL) | CC[C@H](C)[C@H](NC(=O)[C@@H](Cc1ccccc1)NC(=O)[C@@H](Cc1c[nH]c2ccccc12)NC(=O)[C@@H](N)CCCN=C(N)N)C(=O)N[C@H](Cc1ccccc1)C(=O)N[C@@H](C)C(N)=O [listing 2 of 2 here] |
| 45.6 | – | CC[C@H](C)[C@H](NC(=O)[C@@H](Cc1ccccc1)NC(=O)[C@@H](NC(=O)[C@@H](Cc1ccccc1)NC(=O)[C@@H](Cc1c[nH]c2ccccc12)NC(=O)[C@@H](N)CCCN=C(N)N)[C@@H](C)CC)C(N)=O [listing 1 of 2 here] |
| – | 28.4 (≈ 25 µg/mL) | CC[C@H](C)[C@H](NC(=O)[C@@H](Cc1ccccc1)NC(=O)[C@@H](NC(=O)[C@@H](Cc1ccccc1)NC(=O)[C@@H](Cc1c[nH]c2ccccc12)NC(=O)[C@@H](N)CCCN=C(N)N)[C@@H](C)CC)C(N)=O [listing 2 of 2 here] |
| > 14.9 | – | CC[C@H](C)[C@H](NC(=O)[C@@H](Cc1ccccc1)NC(=O)[C@@H](Cc1c[nH]c2ccccc12)NC(=O)[C@@H](N)CCCN=C(N)N)C(=O)N[C@H](Cc1ccccc1)C(=O)N[C@H](C(N)=O)[C@@H](C)O [listing 1 of 2 here] |
| – | 14.4 (≈ 12.5 µg/mL) | CC[C@H](C)[C@H](NC(=O)[C@@H](Cc1ccccc1)NC(=O)[C@@H](Cc1c[nH]c2ccccc12)NC(=O)[C@@H](N)CCCN=C(N)N)C(=O)N[C@H](Cc1ccccc1)C(=O)N[C@H](C(N)=O)[C@@H](C)O [listing 2 of 2 here] |
| 28.6 | 6.81 (≈ 6.2 µg/mL) | NCCCC[C@H](NC(=O)[C@@H](Cc1ccccc1)NC(=O)[C@H](Cc1ccccc1)NC(=O)[C@@H](Cc1ccccc1)NC(=O)[C@@H](Cc1c[nH]c2ccccc12)NC(=O)[C@@H](N)Cc1c[nH]cn1)C(N)=O (H-H[dW][dF]F[dF]K-NH2) |
| 6.85 | – | CC[C@H](C)[C@H](NC(=O)[C@@H](Cc1ccccc1)NC(=O)[C@@H](Cc1c[nH]c2ccccc12)NC(=O)[C@@H](N)CCCN=C(N)N)C(=O)N[C@H](Cc1ccccc1)C(=O)N[C@@H](Cc1c[nH]cn1)C(N)=O (H-R[dW][dF]I[dF]H-NH2) [listing 1 of 2 here] |
| – | 6.85 (≈ 6.19 µg/mL) | CC[C@H](C)[C@H](NC(=O)[C@@H](Cc1ccccc1)NC(=O)[C@@H](Cc1c[nH]c2ccccc12)NC(=O)[C@@H](N)CCCN=C(N)N)C(=O)N[C@H](Cc1ccccc1)C(=O)N[C@@H](Cc1c[nH]cn1)C(N)=O (H-R[dW][dF]I[dF]H-NH2) [listing 2 of 2 here] |
